Data: patent US8841413B2, “Antidiabetic compounds” (Cadila Healthcare Limited, priority 2006, dated 2014)

Columns and labels:
[1] = Stability in simulated intestinal fluid; format: in vitro ADME; conditions: 2 μM, 37° C., pH 7.5
Outline: (§1)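 Reactions were stopped with 10% (v/v) TFA/H2O, then analysed by HPLC on a column equilibrated in TFA/H2O at 1 mL/min. Absorbance was read at 206 nm by UV, and peaks were collected manually for ESI-MS identification.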

[2] = biological target: T1, human glucagon receptor (Homo sapiens, UniProt P47871); experiment: In vitro human glucagon antagonist activity (inhibition of cAMP production), CHO/human glucagon R cells; format: cell-based
T1 construct: The full-length cDNA was cloned in pcDNA3.1(Invitrogen); expressed in transfected cells

[3] = Stability in simulated gastric fluid; format: in vitro ADME; conditions: 2 μM, 37° C., pH 1.5, pepsin
Outline: as §1

[4] = Stability in human plasma; format: in vitro ADME; conditions: for % degradation in 24 h when incubated with human plasma: 2 μM, 37° C.; for half-life at 2 μM: human, pooled human plasma, pH 7.8, 37° C., read-out: half-life (t1/2) in human plasma
Outline: as §1

[5] = test system: RIN5F (Rat Insulinoma) cells; experiment: In vitro glucose-dependent insulin secretion (RIN5F cell assay); format: cell-based; conditions: 16.7 mM glucose load, mean ± S.D., n = 3
[6] = Stability against liver microsomes; format: in vitro ADME, human; conditions: for % degradation in 24 h when incubated with liver microsomes: 2 μM, 37° C.; for half-life at 2 μM: human, human liver microsomes, pH 7.8, 37° C., read-out: half-life (t1/2) with liver microsomes
Outline: as §1

[7] = biological target: DPP IV (Homo sapiens, UniProt P27487); experiment: Stability against DPP IV enzyme; format: in vitro ADME; conditions: for % degradation in 24 h when incubated with DPP-IV enzyme: 2 μM, 37° C.; for half-life at 2 μM: DPP IV enzyme, pH 7.8, 37° C., read-out: half-life (t1/2) with DPP-IV enzyme
Outline: as §1

[8] = 1 nM test compound (fourth concentration column, between 100 nM and 10 μM) with saturated concentration of glucagon peptide
[9] = 1 nM test compound with saturated concentration of glucagon peptide
[10] = 10 nM test compound with saturated concentration of glucagon peptide
[11] = 100 nM test compound with saturated concentration of glucagon peptide
[12] = 10 μM test compound with saturated concentration of glucagon peptide

Chain of DPP IV (P27487 whole entry, species assumed): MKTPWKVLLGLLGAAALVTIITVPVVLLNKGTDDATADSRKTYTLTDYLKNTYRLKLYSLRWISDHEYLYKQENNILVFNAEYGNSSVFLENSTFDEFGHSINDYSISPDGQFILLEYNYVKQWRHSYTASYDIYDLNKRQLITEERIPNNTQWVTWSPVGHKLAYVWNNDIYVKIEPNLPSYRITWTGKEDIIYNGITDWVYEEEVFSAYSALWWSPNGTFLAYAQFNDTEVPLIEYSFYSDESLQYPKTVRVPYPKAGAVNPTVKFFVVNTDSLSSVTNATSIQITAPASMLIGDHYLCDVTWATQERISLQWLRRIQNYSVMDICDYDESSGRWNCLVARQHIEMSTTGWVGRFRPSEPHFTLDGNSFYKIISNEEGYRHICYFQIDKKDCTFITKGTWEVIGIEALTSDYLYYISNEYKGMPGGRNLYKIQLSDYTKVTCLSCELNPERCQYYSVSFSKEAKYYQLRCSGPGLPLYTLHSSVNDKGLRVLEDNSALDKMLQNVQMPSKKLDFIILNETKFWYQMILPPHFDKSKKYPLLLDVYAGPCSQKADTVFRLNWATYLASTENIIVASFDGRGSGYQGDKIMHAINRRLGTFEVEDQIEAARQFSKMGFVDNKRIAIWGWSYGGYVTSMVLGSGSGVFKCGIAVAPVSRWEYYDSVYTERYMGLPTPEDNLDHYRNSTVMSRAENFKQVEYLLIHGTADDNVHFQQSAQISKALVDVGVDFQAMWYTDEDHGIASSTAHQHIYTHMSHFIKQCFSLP
T1 sequence (P47871 26-477): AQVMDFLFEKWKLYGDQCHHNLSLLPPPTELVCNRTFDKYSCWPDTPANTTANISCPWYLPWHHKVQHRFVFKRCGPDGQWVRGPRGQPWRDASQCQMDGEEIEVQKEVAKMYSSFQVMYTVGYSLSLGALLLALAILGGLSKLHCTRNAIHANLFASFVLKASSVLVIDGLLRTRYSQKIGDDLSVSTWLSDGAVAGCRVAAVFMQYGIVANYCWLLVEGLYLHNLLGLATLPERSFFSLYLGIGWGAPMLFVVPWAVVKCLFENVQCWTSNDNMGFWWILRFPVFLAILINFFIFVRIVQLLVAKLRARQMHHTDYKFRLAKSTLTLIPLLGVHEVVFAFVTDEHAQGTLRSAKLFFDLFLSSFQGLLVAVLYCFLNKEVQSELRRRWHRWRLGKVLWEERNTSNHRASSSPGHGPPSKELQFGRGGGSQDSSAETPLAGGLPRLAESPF

Structure (SMILES)	% degradation in 24 h when incubated with simulated intestinal fluid [1] [%]	half-life (t1/2) in simulated intestinal fluid [1]	Human Glucagon receptor antagonistic activity, inhibition of cAMP production of Glucagon peptide [2, 8] [pmol/ml/μg prt]	Human Glucagon receptor antagonistic activity, inhibition of cAMP production of Glucagon peptide [2, 9] [pmol/ml/μg prt]	Human Glucagon receptor antagonistic activity, inhibition of cAMP production of Glucagon peptide [2, 10] [pmol/ml/μg prt]	Human Glucagon receptor antagonistic activity, inhibition of cAMP production of Glucagon peptide [2, 11] [pmol/ml/μg prt]	Human Glucagon receptor antagonistic activity, inhibition of cAMP production of Glucagon peptide [2, 12] [pmol/ml/μg prt]	% degradation in 24 h when incubated with simulated gastric fluid [3] [%]	half-life (t1/2) in simulated gastric fluid [3]	% degradation in 24 h when incubated with human plasma [4] [%]	half-life at 2 μM [4] [min]	Insulin secretion ([5]; 0.1 nM test compd.) [pg/µg/h]	Insulin secretion ([5]; 1 nM test compd.) [pg/µg/h]	Insulin secretion ([5]; 10 nM test compd.) [pg/µg/h]	% degradation in 24 h when incubated with liver microsomes [6] [%]	half-life at 2 μM [6] [min]	% degradation in 24 h when incubated with DPP-IV enzyme [7] [%]	half-life at 2 μM [7] [min]
CCc1cc(OC)ccc1-c1ccc(CC(NC(=O)[C@H](CC(=O)O)NC(=O)[C@H](CO)NC(=O)[C@@H](NC(=O)C(C)(Cc2ccccc2F)NC(=O)[C@@H](NC(=O)CNC(=O)[C@H](CCC(N)=O)NC(=O)[C@H](C)NC(=O)[C@@H](N)Cc2c[nH]cn2)[C@@H](C)O)[C@@H](C)O)C(=O)NC(Cc2ccc(-c3ccccc3C(F)(F)F)cc2)C(N)=O)cc1 (single isomer, unassigned) [compound 28]	42	(6) h	0	4 ± 0.06	3 ± 0.11	0	0	12	(8) h	70	480	12.0 ± 0.14	14.3 ± 0.12	27.8 ± 0.32	78	60	72	540
CCc1cc(OC)ccc1-c1ccc(CC(NC(=O)[C@H](CC(=O)O)NC(=O)[C@H](CO)NC(=O)[C@@H](NC(=O)C(C)(Cc2ccccc2F)NC(=O)[C@@H](NC(=O)CNC(=O)[C@H](CCC(N)=O)NC(=O)[C@H](CO)NC(=O)[C@@H](N)Cc2c[nH]cn2)[C@@H](C)O)[C@@H](C)O)C(=O)NC(Cc2ccc(-c3ccccc3F)cc2)C(N)=O)cc1 (single isomer, unassigned) [compound 23]	50	(6) h	0	4 ± 0.05	2 ± 0.13	2 ± 0.12	0	13	(8) h	80	480	11.9 ± 0.17	14.2 ± 0.13	27.6 ± 0.16	82	60	77	540
CCc1cc(OC)ccc1-c1ccc(CC(NC(=O)[C@H](CC(=O)O)NC(=O)[C@H](CO)NC(=O)[C@@H](NC(=O)C(C)(Cc2ccccc2F)NC(=O)[C@@H](NC(=O)CNC(=O)[C@H](CCC(N)=O)NC(=O)[C@H](C)NC(=O)[C@@H](N)Cc2c[nH]cn2)[C@@H](C)O)[C@@H](C)O)C(=O)NC(Cc2ccc(-c3ccccc3F)cc2)C(N)=O)cc1 (single isomer, unassigned) [compound 27]	41	(6) h	3 ± 0.12	14 ± 0.02	11 ± 0.03	7 ± 0.22	0	15	(8) h	70	480	12.6 ± 0.25	15.3 ± 0.31	29.7 ± 0.48	77	60	86	540
